Reference: patent publication US20090111818A1, “Combinations of Eszopiclone and O-Desmethylvenlafaxine, and Methods of Treatment of Menopause and Mood, Anxiety, and Cognitive Disorders” (SEPRACOR INC., priority 2005, published 2009)

Legend:
[1] = in vivo; cited from earlier work
norepinephrine uptake = settings: in vitro; cited from earlier work
dopamine uptake = settings: in vitro; cited from earlier work
[2] = tested on: norepinephrine synaptosomal uptake; settings: cited from earlier work
[3] = tested on: women with insomnia secondary to perimenopause or menopause; experiment: Clinical study of eszopiclone 3 mg vs placebo: number of nocturnal awakenings due to hot flashes; type: in vivo, human; settings: Week 1; 3 mg nightly; p<0.0001
Protocol: The study was aimed at observing efficacy of eszopiclone 3 mg compared to placebo in the treatment of insomnia secondary to perimenopause or menopause.
The study was a multicenter, randomized, double-blind, placebo-controlled, parallel-group study. […] The primary method of analysis compared the post-randomization results between the two treatment groups.
Subjects were women with insomnia secondary to perimenopause or menopause. Subjects were perimenopausal or menopausal and had insomnia symptoms including ≧45 minutes sleep latency (SL) and total sleep time (TST) ≦6 hours. Perimenopausal/menopausal symptoms predated the onset of sleep disturbance symptoms. The patient population was predominately Caucasian (77.2%). The mean age was 49, with a range of 40-60.
A total of 410 subjects were randomized. Among them, 201 received 3 mg of eszopiclone (ESZ) nightly (at bedtime) for four weeks and 209 received matching placebo (PBO).

## CN(C)CC(c1ccc(O)cc1)C1(O)CCCCC1 (racemic) [O-desmethylvenlafaxine, (±)-1-[2-(dimethylamino)-1-(4-hydroxyphenyl)ethyl]-cyclohexanol]
[1]
  half-life (t½): about 10 hours
  half-life relative to that of venlafaxine: approximately 2.5 times
Norepinephrine uptake
  inhibition of norepinephrine uptake compared with the parent compound venlafaxine: more potent inhibitor
Dopamine uptake
  inhibition of dopamine uptake compared with the parent compound venlafaxine: more potent inhibitor

## COc1ccc(C(CN(C)C)C2(O)CCCCC2)cc1 (single isomer, unassigned) [venlafaxine (−) enantiomer]
[2]
  inhibition of norepinephrine synaptosomal uptake, comparison of enantiomers: more potent inhibitor

## CN1CCN(C(=O)O[C@H]2c3nccnc3C(=O)N2c2ccc(Cl)cn2)CC1 [Eszopiclone, (+) 6-(5-chloropyrid-2-yl)-5-(4-methylpiperazin-1-yl)carbonyloxy-7-oxo-6,7-dihydro-5H-pyrrolo[3-4-b]pyrazine]
[3]
  change from baseline in number of nocturnal awakenings due to hot flashes compared with PBO: significantly reduced
